Earlier results, collected in US11229230B2, “Antioxidant-enriched multivitamin composition and methods of use” (Callion Pharma, LLC, priority 2016, dated 2022).

How the values were obtained:
cystic fibrosis = settings: oral treatment, Phase II clinical study
cystic fibrosis patients = settings: inhaled

| Structure (SMILES) | lung function (cystic fibrosis) | effectiveness in cystic fibrosis (cystic fibrosis patients) |
| --- | --- | --- |
| CC(=O)N[C@@H](CS)C(=O)O [N-acetylcysteine] | did not improve lung function |  |
| N[C@@H](CCC(=O)N[C@@H](CS)C(=O)NCC(=O)O)C(=O)O [glutathione] |  | has not been effective |
